Experimental data as given in the RepoRT retention time repository (doi:10.1021/acs.analchem.2c02893).

Test: RP, Thermo Scientific Acclaim RSLC 120 C18, 100 × 2.1 mm, 2.2 µm, 30 °C, 0.2 mL/min, estimated dead time 1.1 min; A: 90% water + 10% methanol + 0.01% formic acid + 5 mM ammonium formate, pH 3.61; B: methanol + 0.01% formic acid + 5 mM ammonium formate, pH 3.61; gradient (min/%B) 0/1 1/1 2/39 13/99.9 15/99.9 15.1/1 20.1/1
Conditions: stereoisomer not certain

| Structure (SMILES) | LC retention time [min] |
| --- | --- |
| CCCCOC(=O)c1ccc(O)cc1 [Butylparaben] | 9.46 |
| CCCCCn1nc(C(=O)c2cccc3ccccc23)c2ccccc21 [THJ-018] | 13.1 |
| CCNc1nc(Cl)nc(NC(C)(C)C#N)n1 [Cyanazine] | 6.55 |
| Cc1ncc([N+](=O)[O-])n1CCCO [Ternidazole] | 4.21 |
| O=C(NC12CC3CC(CC(C3)C1)C2)c1nn(CCCCCF)c2ccccc12 [AKB48-5F (5F-APINACA)] | 12.9 |
| CN=C1CN(O)C(c2ccccc2)=c2cc(Cl)ccc2=N1 [Chlordiazepoxide] | 8.79 |
| CCc1c(C)[nH]c2c1C(=O)C(CN1CCOCC1)CC2 (centres undefined) [Molindone] | 4.89 |
| COC(=O)Nc1nc2ccc(C(=O)c3ccccc3)cc2[nH]1 [Mebendazole] | 8.25 |
| CCN(CC)C(=O)SCc1ccccc1Cl [Orbencarb] | 11.3 |
| CCCc1nn(C)c2c(=O)[nH]c(-c3cc(C(=O)CN4CCCCC4)ccc3OCC)nc12 [Piperiacetildenafil] | 7.14 |
| O=C(Nc1cccc2ccccc12)c1nn(CCCCCF)c2ccccc12 [5-fluoro MN-18] | 11.8 |
| COc1nc(NC(C)C)nc(NC(C)C)n1 [Prometon] | 8.86 |
| CNC(=O)Oc1ccc2c(c1)C1(C)CCN(C)C1N2C (centres undefined) [Physostigmine] | 3.89 |
| CCc1nn(C)c(C(=O)NCc2ccc(Oc3ccc(C)cc3)cc2)c1Cl [Tolfenpyrad] | 12.4 |
| CCCCc1c(C)nc(NCC)nc1OS(=O)(=O)N(C)C [Bupirimate] | 10.5 |
| CCCSP(=O)(OCC)SCCC [Ethoprophos] | 10.2 |
| CC1C(=O)OC2CCN3CC=C(COC(=O)C(C)(O)C1(C)O)C23 (centres undefined) [Monocrotaline] | 2.92 |
| CCCc1nn(C)c2c(=O)[nH]c(-c3cc(C(=O)CN4CC(C)NC(C)C4)ccc3OCC)nc12 (centres undefined) [Acetildenafil-Dimethyl] | 7.5 |
| COC(=O)C1=C(C)NC(C)=C(C(=O)OC(C)C)C1c1cccc2nonc12 (centres undefined) [Isradipine] | 9.61 |
| CC=C1CC(C)C(C)(O)C(=O)OCC2=CCN3CCC(OC1=O)C23 (centres undefined) [Senecionine] | 4.62 |
| CN1CCCC(n2nc(Cc3ccc(Cl)cc3)c3ccccc3c2=O)CC1 (centres undefined) [Azelastine] | 7.59 |

| Structure (SMILES) | LC retention time [min] |
| --- | --- |
| Nc1cccc2cc(S(=O)(=O)O)ccc12 [5-Aminonaphthalene-2-sulfonic acid] | 3.27 |
| CCOC(=O)NC(=S)Nc1ccccc1NC(=S)NC(=O)OCC [Thiophanate-ethyl] | 8.61 |
| CCOP(=S)(OCC)SCn1c(=O)oc2cc(Cl)ccc21 [Phosalone] | 11.3 |
| COc1ccc2[nH]cc(CCN(C(C)C)C(C)C)c2c1 [MeO-DIPT (5-)] | 4.81 |
| Cc1nnc(SCC2=C(C(=O)O)N3C(=O)C(NC(=O)Cn4cnnn4)C3SC2)s1 (centres undefined) [Cefazolin] | 4.16 |
| CCC(CC)OC1C=C(C(=O)O)CC(N)C1NC(C)=O (centres undefined) [Oseltamivir-carboxylate] | 4.73 |
| CNC(C)Cc1ccc2c(c1)OCO2 (centres undefined) [MDMA] | 4.18 |
| Cc1ccccc1CC(C)N (centres undefined) [Amphetamine-2-methyl (ortetamine)] | 5.17 |
| C=CCN(CC=C)C(=O)CCl [Allidochlor] | 6.37 |
| CC(=O)OCC(=O)C1(O)C(C)CC2C3CCC4=CC(=O)C=CC4(C)C3(F)C(O)CC21C (centres undefined) [Betamethasone acetate] | 9.37 |
| CCCCCn1nc(C(=O)Nc2cccc3ccccc23)c2ccccc21 [MN-18] | 13 |
| CCCC(NC(C)C(=O)N1C(C(=O)O)CC2CCCCC21)C(=O)OCC (centres undefined) [Perindopril] | 13.2 |
| CNC(C)Cc1ccccc1F (centres undefined) [Amphetamine-2-F-Methyl (2-F-methamphetamine)] | 4.33 |
| COc1cc(OC)nc(Oc2cccc(Oc3nc(OC)cc(OC)n3)c2C(=O)O)n1 [Bispyribac] | 8.86 |
| CC(C)OP(=O)(OC(C)C)SCc1ccccc1 [Iprobenfos] | 10.6 |
| N#Cc1nn(-c2c(Cl)cc(C(F)(F)F)cc2Cl)c(N)c1SC(F)(F)F [Fipronil-sulfide] | 10.8 |
| NCCC(Oc1ccc(C(F)(F)F)cc1)c1ccccc1 (centres undefined) [Fluoxetine-nor] | 8.58 |
| OCc1nnc2n1-c1ccc(Cl)cc1C(c1ccccc1Cl)=NC2 [Triazolam-1-Hydroxymethyl (alpha-Hydroxy-Triazolam)] | 7.65 |
| CNC1C(C)OC(OC2C(C)OC(OC3C(C)=CCC4CC(CC5(C=CC(C)C(C(C)C)O5)O4)OC(=O)C4C=C(C)C(O)C5OCC(=CC=CC3C)C45O)CC2OC)CC1OC (centres undefined) [Emamectin B1b] | 12 |
| CC(C)(C)C(=O)C(Oc1ccc(Cl)cc1)n1cncn1 (centres undefined) [Triadimefon] | 9.68 |
| CN(C)C(CSS(=O)(=O)c1ccccc1)CSS(=O)(=O)c1ccccc1 [Bensultap] | 9.6 |

| Structure (SMILES) | LC retention time [min] |
| --- | --- |
| CC(C)(C)NCC(O)COc1ccccc1C#N (centres undefined) [Bunitrolol] | 4.66 |
| Cc1ccn2nc(S(=O)(=O)Nc3c(F)cccc3F)nc2n1 [Flumetsulam] | 4.83 |
| NC(=O)c1c(Cl)c(Cl)cc(C(=O)O)c1Cl | 3.88 |
| CC(C)(C)C(O)C(Cc1ccc(Cl)cc1)n1cncn1 (centres undefined) [Paclobutrazole] | 9.49 |
| CCOC(=O)Nc1ccc(NCc2ccc(F)cc2)nc1N [Flupirtine] | 7.09 |
| CCOP(=S)(OCC)Oc1cc(C)nc(C(C)C)n1 [Diazinon] | 11 |
| COc1ccc2c3c1OC1CC(O)C=CC31CCN(C)C2 (centres undefined) [Galantamine] | 2.99 |
| O=C(Oc1cccc2ccccc12)c1cn(CCCCCF)c2ccccc12 [NM-2201] | 12.4 |
| COCCCOc1cc(CC(CC(N)C(O)CC(C(=O)NCC(C)(C)C(N)=O)C(C)C)C(C)C)ccc1OC (centres undefined) [Aliskiren] | 8.87 |
| CC1(C)OC2CC3C4CC(F)C5=CC(=O)C=CC5(C)C4C(O)CC3(C)C2(C(=O)CO)O1 (centres undefined) [Flunisolide] | 9.01 |
| S=c1[nH]c2ccccc2s1 [Benzothiazole-Mercapto] | 6.89 |
| COC(=O)COc1ccc(Cl)cc1C [MCPA-methylester] | 9.85 |
| CCC(C)n1c(=O)[nH]c(C)c(Br)c1=O (centres undefined) [Bromacil] | 7.07 |
| OCCN1CCN(CCCN2c3ccccc3Sc3cccnc32)CC1 [Oxypendyl] | 7.57 |
| CC(=O)SC1CC2=CC(=O)CCC2(C)C2CCC3(C)C(CCC34CCC(=O)O4)C12 (centres undefined) [Spironolactone] | 9.24 |
| N#Cc1nn(-c2c(Cl)cc(C(F)(F)F)cc2Cl)c(N)c1C(F)(F)F [Fipronil-desulfinyl] | 10.4 |
| CC1=C(C(=O)Nc2ccccc2)SCCO1 [Carboxin] | 7.46 |
| CN1C(C(=O)Nc2ccccn2)=C(O)c2ccccc2S1(=O)=O [Piroxicam] | 6.84 |
| Cc1c(Nc2ncccc2C(=O)O)cccc1C(F)(F)F [Flunixin] | 9.09 |
| CCCc1nn(C)c2c(=S)nc(-c3cc(S(=O)(=O)N4CC(C)NC(C)C4)ccc3OCC)[nH]c12 (centres undefined) [Sildenafil Thiodimethyl] | 9.91 |
| O=C(Nc1ccc(F)cc1)c1cccc(Oc2cccc(C(F)(F)F)c2)n1 [Picolinafen] | 12.3 |

| Structure (SMILES) | LC retention time [min] |
| --- | --- |
| CN(C)CCOC1=Cc2ccccc2Sc2ccc(Cl)cc21 [Zotepine] | 9.04 |
| CC(C)N1C(=O)c2ccccc2NS1(=O)=O [Bentazone] | 5.22 |
| CC(C)N(C(=O)C(=O)O)c1ccccc1 [Propachlor-OXA] | 5.13 |
| Nc1nc2ccc(OC(F)(F)F)cc2s1 [Riluzole] | 9.12 |
| CC12CCC(=O)C=C1C=CC1C2CCC2(C)C1CCC21CCC(=O)O1 (centres undefined) [Canrenone] | 9.77 |
| COC(=O)CCc1ccc(OCC(O)CNC(C)C)cc1 (centres undefined) [Esmolol] | 5.18 |
| C#CCNC(C)Cc1ccccc1 (centres undefined) [Deprenyl-Nor] | 4.66 |
| O=C1CN=C(c2ccccc2F)c2cc([N+](=O)[O-])ccc2N1 [Flunitrazepam-N-Desmethyl (Norflunitrazepam)] | 7.35 |
| c1ccc2c(c1)Cc1ccccc1N1CCNCC21 (centres undefined) [Mianserine-Nor] | 6.86 |
| CCOP(=S)(OCC)SCSCC [Phorate] | 11.4 |
| CNCC(O)c1ccc(O)c(O)c1 (centres undefined) [Epinephrine] | 1.38 |
| c1ccc2c(c1)[nH]c1ccncc12 [5-Carboline] | 8.7 |
| Cc1nnc(-c2ccccc2)c(=O)[nH]1 [Metamitron-desamino] | 5.29 |
| Cc1c(C(=O)c2cccc3ccccc23)c2cccc3c2n1C(CN1CCOCC1)CO3 (centres undefined) [WIN-55-212-2] | 10.9 |
| CCCCCCOC(=O)NC(=N)c1ccc(NCc2nc3cc(C(=O)N(CCC(=O)OCC)c4ccccn4)ccc3n2C)cc1 [Dabigatran etexilate] | 9.29 |
| O=C(O)c1ccccc1C(=O)Nc1cccc2ccccc12 [Naptalam (N-1-Naphthylphthalamic acid)] | 6.75 |
| CN(C)CCCN1c2ccccc2CCc2ccc(Cl)cc21 [Clomipramine] | 9.21 |
| C#CC(C)N(C)C(=O)Nc1ccc(Cl)cc1 (centres undefined) [Buturon] | 8.35 |
| FC(F)C(F)(F)OCC(Cn1cncn1)c1ccc(Cl)cc1Cl (centres undefined) [Tetraconazole] | 10.1 |
| CCOP(=S)(OCC)SC(CCl)N1C(=O)c2ccccc2C1=O (centres undefined) [Dialifos] | 11.5 |
| COP(=S)(OC)Oc1ccc(SC)c(C)c1 [Fenthion] | 11 |
